From US8722704B2, “Modulators of ATP-binding cassette-transporters” (Vertex Pharmaceuticals Incorporated, priority 2007, dated 2014) come the findings set out here.

T1 sequence (P13569 with tags, fused parts or gaps DEL508-508): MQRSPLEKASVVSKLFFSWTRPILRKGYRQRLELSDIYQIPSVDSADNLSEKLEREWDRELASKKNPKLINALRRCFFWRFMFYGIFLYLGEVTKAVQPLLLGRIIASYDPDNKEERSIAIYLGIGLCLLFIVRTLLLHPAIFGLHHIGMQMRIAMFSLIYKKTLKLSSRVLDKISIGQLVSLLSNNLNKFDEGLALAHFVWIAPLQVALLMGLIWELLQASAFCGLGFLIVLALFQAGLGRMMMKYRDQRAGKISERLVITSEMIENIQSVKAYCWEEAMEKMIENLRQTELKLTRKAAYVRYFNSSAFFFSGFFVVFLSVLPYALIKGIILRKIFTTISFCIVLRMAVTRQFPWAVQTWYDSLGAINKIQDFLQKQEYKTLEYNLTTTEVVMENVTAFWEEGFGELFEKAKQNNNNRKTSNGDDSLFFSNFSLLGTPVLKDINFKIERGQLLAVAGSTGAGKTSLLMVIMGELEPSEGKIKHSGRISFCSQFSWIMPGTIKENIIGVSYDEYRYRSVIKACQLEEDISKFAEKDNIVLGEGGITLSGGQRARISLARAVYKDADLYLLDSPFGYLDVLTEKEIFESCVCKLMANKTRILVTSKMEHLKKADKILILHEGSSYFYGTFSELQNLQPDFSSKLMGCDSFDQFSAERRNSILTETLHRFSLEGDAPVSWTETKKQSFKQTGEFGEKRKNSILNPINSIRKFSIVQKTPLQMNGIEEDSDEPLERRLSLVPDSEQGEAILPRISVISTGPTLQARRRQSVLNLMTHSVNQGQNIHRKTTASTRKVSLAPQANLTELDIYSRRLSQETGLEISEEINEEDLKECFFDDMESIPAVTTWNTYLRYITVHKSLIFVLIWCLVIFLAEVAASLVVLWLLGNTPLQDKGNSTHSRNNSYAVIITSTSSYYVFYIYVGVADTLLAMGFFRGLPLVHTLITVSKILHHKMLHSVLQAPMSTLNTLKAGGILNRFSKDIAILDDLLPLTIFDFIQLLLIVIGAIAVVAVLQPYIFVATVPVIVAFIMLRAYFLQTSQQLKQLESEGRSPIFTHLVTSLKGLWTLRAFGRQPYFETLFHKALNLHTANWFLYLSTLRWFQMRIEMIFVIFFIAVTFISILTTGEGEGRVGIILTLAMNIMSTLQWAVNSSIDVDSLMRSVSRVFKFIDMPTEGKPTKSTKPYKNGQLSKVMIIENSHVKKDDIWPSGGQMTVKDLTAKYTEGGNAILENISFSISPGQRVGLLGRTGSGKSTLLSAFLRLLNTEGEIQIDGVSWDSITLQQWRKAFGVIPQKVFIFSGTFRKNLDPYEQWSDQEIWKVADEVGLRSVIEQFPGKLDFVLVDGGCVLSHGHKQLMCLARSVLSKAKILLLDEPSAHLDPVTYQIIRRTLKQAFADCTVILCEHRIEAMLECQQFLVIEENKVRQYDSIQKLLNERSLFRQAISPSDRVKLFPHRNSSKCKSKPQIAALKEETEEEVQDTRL

This assay concerns the target T1, ΔF508-CFTR (Homo sapiens, UniProt P13569, DEL508-508).
T1 construct: expressed in transfected cells
Description: Assays for detecting and measuring ΔF508-CFTR correction properties (membrane potential optical assay; Table 3 does not say which assay). The format is cell-based. The settings on record: IC50/EC50 bins; NIH3T3 mouse fibroblasts stably expressing ΔF508-CFTR; read-out: Binned EC50. The source says:
The optical membrane potential assay utilized voltage-sensitive FRET sensors described by Gonzalez and Tsien (See Gonzalez, J. E. and R. Y. Tsien (1995) “Voltage sensing by fluorescence resonance energy transfer in single cells” Biophys J 69(4): 1272-80, and Gonzalez, J. E. and R. Y. Tsien (1997) “Improved indicators of cell membrane potential that use fluorescence resonance energy transfer” Chem Biol 4(4): 269-77) in combination with instrumentation for measuring fluorescence changes such as the Voltage/Ion Probe Reader (VIPR) (See Gonzalez, J. E., K. Oades, et al. (1999) “Cell-based assays and instrumentation for screening ion-channel targets” Drug Discov Today 4(9): 431-439).
These voltage sensitive assays are based on the change in fluorescence resonant energy transfer (FRET) between the membrane-soluble, voltage-sensitive dye, DiSBAC2(3), and a fluorescent phospholipid, CC2-DMPE, which is attached to the outer leaflet of the plasma membrane and acts as a FRET donor. Changes in membrane potential (Vm) cause the negatively charged DiSBAC2(3) to redistribute across the plasma membrane and the amount of energy transfer from CC2-DMPE changes accordingly. The changes in fluorescence emission were monitored using VIPR™ II, which is an integrated liquid handler and fluorescent detector designed to conduct cell-based screens in 96- or 384-well microtiter plates.
To identify small molecules that correct the trafficking defect associated with ΔF508-CFTR; a single-addition HTS assay format was developed. The cells were incubated in serum-free medium for 16 hrs at 37° C. in the presence or absence (negative control) of test compound. As a positive control, cells plated in 384-well plates were incubated for 16 hrs at 27° C. to “temperature-correct” ΔF508-CFTR. The cells were subsequently rinsed 3× with Krebs Ringers solution and loaded with the voltage-sensitive dyes. To activate ΔF508-CFTR, 10 μM forskolin and the CFTR potentiator, genistein (20 μM), were added along with Cl^−-free medium to each well. The addition of Cl^−-free medium promoted Cl^− efflux in response to ΔF508-CFTR activation and the resulting membrane depolarization was optically monitored using the FRET-based voltage-sensor dyes. […]
3. Solutions • Bath Solution #1: (in mM) NaCl 160, KCl 4.5, CaCl2 2, MgCl2 1, HEPES 10, pH 7.4 with NaOH. • Chloride-free bath solution: Chloride salts in Bath Solution #1 are substituted with gluconate salts. • CC2-DMPE: Prepared as a 10 mM stock solution in DMSO and stored at −20° C. • DiSBAC2(3): Prepared as a 10 mM stock in DMSO and stored at −20° C.
NIH3T3 mouse fibroblasts stably expressing ΔF508-CFTR are used for optical measurements of membrane potential. The cells are maintained at 37° C. in 5% CO2 and 90% humidity in Dulbecco's modified Eagle's medium supplemented with 2 mM glutamine, 10% fetal bovine serum, 1×NEAA, β-ME, 1×pen/strep, and 25 mM HEPES in 175 cm^2 culture flasks. For all optical assays, the cells were seeded at 30,000/well in 384-well matrigel-coated plates and cultured for 2 hrs at 37° C. before culturing at 27° C. for 24 hrs for the potentiator assay. For the correction assays, the cells are cultured at 27° C. or 37° C. with and without compounds for 16-24 hours.
Turning to `CS(=O)(=O)NCc1ccc(-c2nc(NC(=O)C3(c4ccc5c(c4)OC(F)(F)O5)CC3)cc3ccccc23)cc1` [Compound 1, 1-(2,2-Difluorobenzo[d][1,3]dioxol-5-yl)-N-(1-(4-(methylsulfonamidomethyl)phenyl)isoquinolin-3-yl)cyclopropanecarboxamide], the EC50 is greater than 5000 nM. Take `O=C(Nc1cc2ccccc2c(-c2ccc3[nH]ncc3c2)n1)C1(c2ccc3c(c2)OC(F)(F)O3)CC1` [Compound 2, N-(1-(1H-Indazol-5-yl)isoquinolin-3-yl)-1-(2,2-difluorobenzo[d][1,3]dioxol-5-yl)cyclopropanecarboxamide]: the half-maximal effective concentration (EC50) was no more than 2000 nM. The value for `CC(=O)NCc1ccc(-c2nc(NC(=O)C3(c4ccc5c(c4)OC(F)(F)O5)CC3)cc3ccccc23)cc1` [Compound 3, N-(1-(4-(Acetamidomethyl)phenyl)isoquinolin-3-yl)-1-(2,2-difluorobenzo[d][1,3]dioxol-5-yl)cyclopropanecarboxamide] was no more than 2000 nM; that for `O=C(Nc1cc2ccccc2c(-c2ccccc2)n1)C1(c2ccc3c(c2)OC(F)(F)O3)CC1` [Compound 4, 1-(2,2-difluorobenzo[d][1,3]dioxol-5-yl)-N-(1-phenylisoquinolin-3-yl)cyclopropanecarboxamide] was no more than 2000 nM; that for `O=C(O)c1ccc(-c2nc(NC(=O)C3(c4ccc5c(c4)OC(F)(F)O5)CC3)cc3ccccc23)cc1` [Compound 5] was no more than 2000 nM. The value for `NC(=O)c1ccc(-c2nc(NC(=O)C3(c4ccc5c(c4)OC(F)(F)O5)CC3)cc3ccccc23)cc1` [Compound 6, 4-(3-(1-(2,2-Difluorobenzo[d][1,3]dioxol-5-yl)cyclopropanecarboxamido)isoquinolin-1-yl)benzamide] was no more than 2000 nM. `Cc1cc2cc(-c3nc(NC(=O)C4(c5ccc6c(c5)OC(F)(F)O6)CC4)cc4ccccc34)ccc2[nH]1` [Compound 7, 1-(2,2-difluorobenzo[d][1,3]dioxol-5-yl)-N-(1-(2-methyl-1H-indol-5-yl)isoquinolin-3-yl)cyclopropanecarboxamide]: the EC50 is no more than 2000 nM. The value for `O=C(O)c1cccc(-c2nc(NC(=O)C3(c4ccc5c(c4)OC(F)(F)O5)CC3)cc3ccccc23)c1` [Compound 8] was no more than 2000 nM; that for `CS(=O)(=O)NCc1cccc(-c2nc(NC(=O)C3(c4ccc5c(c4)OC(F)(F)O5)CC3)cc3ccccc23)c1` [Compound 9, 1-(2,2-Difluorobenzo[d][1,3]dioxol-5-yl)-N-(1-(3-(methylsulfonamidomethyl)phenyl)isoquinolin-3-yl)cyclopropanecarboxamide] was no more than 2000 nM. For `CC(=O)NCc1cccc(-c2nc(NC(=O)C3(c4ccc5c(c4)OC(F)(F)O5)CC3)cc3ccccc23)c1` [Compound 10, N-(1-(3-(Acetamidomethyl)phenyl)isoquinolin-3-yl)-1-(2,2-difluorobenzo[d][1,3]dioxol-5-yl)cyclopropanecarboxamide], the EC50 is no more than 2000 nM. In the case of `NS(=O)(=O)c1ccc(-c2nc(NC(=O)C3(c4ccc5c(c4)OC(F)(F)O5)CC3)cc3ccccc23)cc1` [Compound 11, 1-(2,2-Difluorobenzo[d][1,3]dioxol-5-yl)-N-(1-(4-sulfamoylphenyl)isoquinolin-3-yl)cyclopropanecarboxamide] it was no more than 2000 nM; in that of `COc1ccc(C2(C(=O)Nc3cc4ccccc4c(N4CCN(C)CC4)n3)CC2)cc1` [Compound 12], no more than 2000 nM; in that of `NS(=O)(=O)c1cccc(-c2nc(NC(=O)C3(c4ccc5c(c4)OC(F)(F)O5)CC3)cc3ccccc23)c1` [Compound 13, 1-(2,2-Difluorobenzo[d][1,3]dioxol-5-yl)-N-(1-(3-sulfamoylphenyl)isoquinolin-3-yl)cyclopropanecarboxamide], no more than 2000 nM. `COc1ccc(C2(C(=O)Nc3cc4ccccc4c(N4CCN(c5ccccc5)C(=O)C4)n3)CC2)cc1` [Compound 14, 1-(4-methoxyphenyl)-N-(1-(3-oxo-4-phenylpiperazin-1-yl)isoquinolin-3-yl)cyclopropanecarboxamide]: the EC50 is no more than 2000 nM.

For the compound `O=C1NCc2ccc(-c3nc(NC(=O)C4(c5ccc6c(c5)OC(F)(F)O6)CC4)cc4ccccc34)cc21` [Compound 15, 1-(2,2-Difluorobenzo[d][1,3]dioxol-5-yl)-N-(1-(3-oxoisoindolin-5-yl)isoquinolin-3-yl)cyclopropanecarboxamide], the EC50 is no more than 2000 nM. Take `O=C(Nc1cc2ccccc2c(-c2ccc3[nH]ccc3c2)n1)C1(c2ccc3c(c2)OC(F)(F)O3)CC1` [Compound 16, N-(1-(1H-Indol-5-yl)isoquinolin-3-yl)-1-(2,2-difluorobenzo[d][1,3]dioxol-5-yl)cyclopropanecarboxamide]: the EC50 was no more than 2000 nM.

Take `O=C(Nc1cc2ccccc2c(-c2ccc(=O)[nH]c2)n1)C1(c2ccc3c(c2)OC(F)(F)O3)CC1` [Compound 17, 1-(2,2-Difluorobenzo[d][1,3]dioxol-5-yl)-N-(1-(6-oxo-1,6-dihydropyridin-3-yl)isoquinolin-3-yl)cyclopropanecarboxamide]: the EC50 was no more than 2000 nM.

As for `COc1ccc(C2(C(=O)Nc3cc4ccccc4c(N4CCOCC4)n3)CC2)cc1` [Compound 18, 1-(4-methoxyphenyl)-N-(1-morpholinoisoquinolin-3-yl)cyclopropanecarboxamide], the EC50 is no more than 2000 nM. In the case of `CN(C)CCOC(=O)c1cccc(-c2nc(NC(=O)C3(c4ccc5c(c4)OC(F)(F)O5)CC3)cc3ccccc23)c1` [Compound 19, 2-(Dimethylamino)ethyl 3-(3-(1-(2,2-difluorobenzo[d][1,3]dioxol-5-yl)cyclopropanecarboxamido)isoquinolin-1-yl)benzoate] it was no more than 2000 nM.

On to `COc1ccc(C2(C(=O)Nc3cc4ccccc4c(N4CCC(c5ccccc5)CC4)n3)CC2)cc1` [Compound 20, 1-(4-methoxyphenyl)-N-(1-(4-phenylpiperidin-1-yl)isoquinolin-3-yl)cyclopropanecarboxamide], for which the EC50 is no more than 2000 nM. Turning to `COc1ccc(C2(C(=O)Nc3cc4ccccc4c(N4CCNC(=O)C4)n3)CC2)cc1` [Compound 21], the EC50 was no more than 2000 nM. In the case of `NC(=O)c1cccc(-c2nc(NC(=O)C3(c4ccc5c(c4)OC(F)(F)O5)CC3)cc3ccccc23)c1` [Compound 22, 3-(3-(1-(2,2-Difluorobenzo[d][1,3]dioxol-5-yl)cyclopropanecarboxamido)isoquinolin-1-yl)benzamide] it was no more than 2000 nM; in that of `COc1ccc(C2(C(=O)Nc3cc4ccccc4c(N4CCCCC4)n3)CC2)cc1` [Compound 23, 1-(4-methoxyphenyl)-N-(1-(piperidin-1-yl)isoquinolin-3-yl)cyclopropanecarboxamide], no more than 2000 nM. Turning to `CN1CCN(C(=O)c2ccc(-c3nc(NC(=O)C4(c5ccc6c(c5)OC(F)(F)O6)CC4)cc4ccccc34)cc2)CC1` [Compound 24, 1-(2,2-difluorobenzo[d][1,3]dioxol-5-yl)-N-(1-(4-(4-methylpiperazine-1-carbonyl)phenyl)isoquinolin-3-yl)cyclopropanecarboxamide], the EC50 is no more than 2000 nM. For the compound `COc1ccc(-c2nc(NC(=O)C3(c4ccc5c(c4)OC(F)(F)O5)CC3)cc3ccccc23)cn1` [Compound 25, 1-(2,2-Difluorobenzo[d][1,3]dioxol-5-yl)-N-(1-(6-methoxypyridin-3-yl)isoquinolin-3-yl)cyclopropanecarboxamide], the EC50 is no more than 2000 nM. The value for `CNS(=O)(=O)c1ccc(-c2nc(NC(=O)C3(c4ccc5c(c4)OC(F)(F)O5)CC3)cc3ccccc23)c(C)c1` [Compound 26, 1-(2,2-difluorobenzo[d][1,3]dioxol-5-yl)-N-(1-(2-methyl-4-(N-methylsulfamoyl)phenyl)isoquinolin-3-yl)cyclopropanecarboxamide] was no more than 2000 nM. As to `O=C(Nc1cc2ccccc2c(-c2ccc(CO)cc2)n1)C1(c2ccc3c(c2)OC(F)(F)O3)CC1` [Compound 27, 1-(2,2-Difluorobenzo[d][1,3]dioxol-5-yl)-N-(1-(4-(hydroxymethyl)phenyl)isoquinolin-3-yl)cyclopropanecarboxamide], the EC50 is no more than 2000 nM.
